pIC50: −log10 of the molar value.
What follows are compounds tested against T1, CNG channel (bovine retinal rod cGMP-gated channel alpha subunit) (Bos taurus, UniProt Q00194) (assay: outside-out patch clamp, macroscopic current block).
T1 sequence (Q00194 1-690): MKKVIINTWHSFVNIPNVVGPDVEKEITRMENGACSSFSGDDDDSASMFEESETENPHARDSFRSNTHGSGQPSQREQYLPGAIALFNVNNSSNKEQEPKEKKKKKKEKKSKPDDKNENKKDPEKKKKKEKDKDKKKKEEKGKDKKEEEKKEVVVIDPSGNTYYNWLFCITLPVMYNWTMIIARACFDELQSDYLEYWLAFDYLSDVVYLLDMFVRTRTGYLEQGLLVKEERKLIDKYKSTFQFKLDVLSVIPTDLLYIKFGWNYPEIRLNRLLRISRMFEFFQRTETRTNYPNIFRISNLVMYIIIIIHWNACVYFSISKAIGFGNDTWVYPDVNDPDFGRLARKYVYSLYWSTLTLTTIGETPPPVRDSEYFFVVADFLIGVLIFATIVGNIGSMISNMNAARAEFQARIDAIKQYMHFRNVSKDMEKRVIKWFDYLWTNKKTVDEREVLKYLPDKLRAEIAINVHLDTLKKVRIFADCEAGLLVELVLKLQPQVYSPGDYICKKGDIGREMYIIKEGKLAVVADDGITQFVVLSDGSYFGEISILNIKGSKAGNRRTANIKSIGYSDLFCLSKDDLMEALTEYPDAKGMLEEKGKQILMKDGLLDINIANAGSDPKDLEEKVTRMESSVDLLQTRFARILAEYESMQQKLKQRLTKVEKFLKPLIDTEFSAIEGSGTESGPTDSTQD
Type: cell-based

| pIC50 | Compound |
| --- | --- |
| 2.85 | NCCCCN [putrescine] |
| 4.30 | NCCCCNCCCN [spermidine] |
| 5.51 | NCCCNCCCCNCCCN [spermine] |
